27 molecules from patent US20130040978A1 (priority 2010, published 2013) can be followed below.

The target of test [1] is T1, SSTR5 (Homo sapiens, UniProt P35346). In words: Functional assay of inhibition of SSTR5 mediated cyclic AMP production in SSTR5 expressing CHO cells. Format: cell-based, human. As to conditions: forskolin (FSK) plus SS-28, read-out: cAMP IC50.
Test [2] concerns the target T1, SSTR5. In words: SSTR5 receptor-ligand binding assay, CHO-K1 cell membranes, 125I-SRIF radioligand. Further details: expressed in transfected cells. As to conditions: Table 4, read-out: Bnd IC50. How it is done:
The receptor-ligand binding assays of all 5 subtype of SSTRs were performed with membranes isolated from Chinese hamster ovary (CHO)-K1 cells stably expressing the cloned human somatostatin receptors in 96-well format as previous reported. (Yang et al. PNAS 95:10836-10841, (1998), Birzin et al. Anal. Biochem. 307:159-166, (2002)).
The stable cell lines for SSTR1-SSTR5 were developed by stably transfecting with DNA for all five SSTRs using Lipofectamine. Neomycin-resistant clones were selected and maintained in medium containing 400 μg/mL G418 (Rohrer et al. Science 282:737-740, (1998)). Binding assays were performed using (3-125I-Tyr11)-SRIF-14 or (3-125I-Tyrl 1)-SRIF-28 as the radioligand (used at 0.1 nM) and The Packard Unifilter assay plate. The assay buffer consisted of 50 mM TrisHCl (pH 7.8) with 1 mM EGTA, 5 mM MgCl2, leupeptin (10 μg/mL), pepstatin (10 μg/mL), bacitracin (200 μg/mL), and aprotinin (0.5 μg/mL). CHO-K1 cell membranes, radiolabeled somatostatin, and unlabeled test compounds were resuspended or diluted in this assay buffer. Unlabeled test compounds were examined over a range of concentrations from 0.01 nM to 10,000 nM. The Ki values for compounds were determined as described by Cheng and Prusoff Biochem Pharmacol. 22:3099-3108 (1973).

pIC50: −log10 of the molar value. Structures can show the parent of a compound that is named as a salt.

T1 sequence (P35346 whole entry): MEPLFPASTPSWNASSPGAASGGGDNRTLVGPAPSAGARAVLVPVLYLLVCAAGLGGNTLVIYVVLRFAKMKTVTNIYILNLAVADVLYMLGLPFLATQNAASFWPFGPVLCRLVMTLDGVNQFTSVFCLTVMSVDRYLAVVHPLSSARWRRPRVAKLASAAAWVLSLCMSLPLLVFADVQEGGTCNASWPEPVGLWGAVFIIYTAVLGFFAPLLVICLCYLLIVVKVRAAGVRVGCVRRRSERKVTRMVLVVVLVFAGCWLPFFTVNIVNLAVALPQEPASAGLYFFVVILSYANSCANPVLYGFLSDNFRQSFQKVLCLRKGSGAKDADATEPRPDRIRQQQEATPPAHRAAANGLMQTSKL

The pIC50 is the negative decadic logarithm of the IC50, by convention in mol/L. As to `CC1(C)CC2(CC2)c2cc(CN3CCC4(CC3)CC(c3ccc(C(=O)O)cc3)=NO4)cc(C3CC3)c2O1` [Example 97, 4-{8-[(8-Cyclopropyl-2,2-dimethyl-2,3-dihydrospiro[chromene-4,1′-cyclopropan]-6-yl)methyl]-1-oxa-2,8-diazaspiro[4.5]dec-2-en-3-yl}benzoic acid, TFA salt], the pIC50 on SSTR5 [1] is 8.39. In the case of `CCOc1cc(CN2CCC3(CC2)CC(c2ccc(C(=O)O)cc2)=NO3)cc(OCC)c1-c1ccc(F)cc1` [Example 1, 4-{8-[(2,6-Diethoxy-4′-fluorobiphenyl-4-yl)methyl]-1-oxa-2,8-diazaspiro[4.5]dec-2-en-3-yl}benzoic acid, TFA salt], the pIC50 at SSTR5 [1] is 9.14; at SSTR5 [2] it was 8.92. The corresponding values for “4-{8-[(4,4-Dimethyl-3,4-dihydro-2-H-chromen-6-yl)methyl]-1-oxa-2,8-diazaspiro[4.5]dec-2-en-3-yl}benzoic acid, TFA salt [Example 2]” are 8.28 and 8.37. The corresponding values for `CCOc1cc(CN2CCC3(CC2)CC(c2ccc(C(=O)O)cc2)=NO3)c(-c2ccc(F)nc2)cc1C` [Example 26, 4-{8-[5-Ethoxy-2-(6-fluoropyridin-3-yl)-4-methylbenzyl]-1-oxa-2,8-diazaspiro[4.5]dec-2-en-3-yl}benzoic acid] are 9.49 and 9.48. The corresponding values for `CC(C)Oc1ccc(-c2ccc(F)c(F)c2)c(CN2CCC3(CC2)CC(c2ccc(C(=O)O)cc2)=NO3)c1` [Example 13, 4-(8-{[3′,4′-Difluoro-4-(propan-2-yloxy)biphenyl-2-yl]methyl}-1-oxa-2,8-diazaspiro[4.5]dec-2-en-3-yl)benzoic acid] are 8.54 and 8.54.

Regarding `CC(C)n1cc(CN2CCC3(CC2)CC(c2ccc(C(=O)O)cc2)=NO3)c2cccc(C3CC3)c21` [Example 48, 4-(8-{[7-(Cyclopropyl)-1-(propan-2-yl)-1H-indol-3-yl]methyl}-1-oxa-2,8-diazaspiro[4.5]dec-2-en-3-yl)benzoic acid, TFA salt], the pIC50 at SSTR5 [1] was 8.47. With `CCOc1ccc(-c2ccc(F)c(F)c2F)c(CN2CCC3(CC2)CC(c2ccc(C(=O)O)cn2)=NO3)c1` [Example 30, 6-{8-[(4-Ethoxy-2′,3′,4′-trifluorobiphenyl-2-yl)methyl]-1-oxa-2,8-diazaspiro[4.5]dec-2-en-3-yl}pyridine-3-carboxylic acid], the pIC50 on SSTR5 [1] was 9.12; at SSTR5 [2], 9.39. On to `CC1(C)CCSc2c(C3CC3)cc(CN3CCC4(CC3)CC(c3ccc(C(=O)O)cc3)=NO4)cc21` [Example 98, 4-{8-[(8-Cyclopropyl-4,4-dimethyl-3,4-dihydro-2H-thiochromen-6-yl)methyl]-1-oxa-2,8-diazaspiro[4.5]dec-2-en-3-yl}benzoic acid, TFA salt], for which the pIC50 at SSTR5 [1] is 7.90.

Regarding `O=C(O)c1ccc(C2=NOC3(CCN(Cc4cn(C5CC5)c5ccc(C6CC6)cc45)CC3)C2)cc1` [Example 49, 4-(8-{[1,5-(Dicyclopropyl)-1H-indol-3-yl]methyl}-1-oxa-2,8-diazaspiro[4.5]dec-2-en-3-yl)benzoic acid, TFA salt], the pIC50 on SSTR5 [1] is 8.60. As for `CC1(C)CC2(CC2)c2cc(CN3CCC4(CC3)CC(c3ccc(C(=O)O)cc3)=NO4)ccc2O1` [Example 95, 4-{8-[(2,2-Dimethyl-2,3-dihydrospiro[chromene-4,1′-cyclopropan]-6-yl)methyl]-1-oxa-2,8-diazaspiro[4.5]dec-2-en-3-yl}benzoic acid, TFA salt], the pIC50 on SSTR5 [1] is 7.73. On the same count and under the same terms, the same measure for `Cc1cccc2c(CN3CCC4(CC3)CC(c3ccc(C(=O)O)cc3)=NO4)cn(C3CC3)c12` [Example 45, 4-(8-{[7-Methyl-1-(cyclopropyl)-1H-indol-3-yl]methyl}-1-oxa-2,8-diazaspiro[4.5]dec-2-en-3-yl)benzoic acid, TFA salt]: 8.04; for `CC1(C)CC2(CC2)c2cc(CN3CCC4(CC3)CC(c3ccc(C(=O)O)cc3)=NO4)cc(Cl)c2O1` [Example 96, 4-{8-[(8-Chloro-2,2-dimethyl-2,3-dihydrospiro[chromene-4,1′-cyclopropan]-6-yl)methyl]-1-oxa-2,8-diazaspiro[4.5]dec-2-en-3-yl}benzoic acid, TFA salt]: 8.03; for `CC1(C)CCOc2c(Cl)cc(CN3CCC4(CC3)CC(c3ccc(C(=O)O)cc3)=NO4)cc21` [Example 87, 4-{8-[(8-Chloro-4,4-dimethyl-3,4-dihydro-2H-chromen-6-yl)methyl]-1-oxa-2,8-diazaspiro[4.5]dec-2-en-3-yl}benzoic acid trifluoroacetate]: 8.82.

For `O=C(O)c1ccc(C2=NOC3(CCN(Cc4ccc(Cl)c(Br)c4)CC3)C2)cc1` [Example 70, 4-[8-(3-Bromo-4-chlorobenzyl)-1-oxa-2,8-diazaspiro[4.5]dec-2-en-3-yl]benzoic acid], on SSTR5 [1], the pIC50 is 7.58.

Take `Cc1cc(-c2cccnc2)c(CN2CCC3(CC2)CC(c2ccc(C(=O)O)cc2)=NO3)cc1C(F)(F)F` [Example 68]: the negative-log IC50 (pIC50) on SSTR5 [1] was 7.88.

Consider `Cc1cccc2c(CN3CCC4(CC3)CC(c3ccc(C(=O)O)cc3)=NO4)cn(C(C)C)c12` [Example 44, 4-(8-{[7-Methyl-1-(propan-2-yl)-1H-indol-3-yl]methyl}-1-oxa-2,8-diazaspiro[4.5]dec-2-en-3-yl)benzoic acid, TFA salt], for which, on SSTR5 [1], the pIC50 was 7.84. Still for that read-out and setting: the same measure for `CC(C)n1cc(CN2CCC3(CC2)CC(c2ccc(C(=O)O)cc2)=NO3)c2c(-c3ccc(F)nc3)cccc21` [Example 40, 4-(8-{[4-(6-Fluoropyridin-3-yl)-1-(propan-2-yl)-1H-indol-3-yl]methyl}-1-oxa-2,8-diazaspiro[4.5]dec-2-en-3-yl)benzoic acid, TFA salt]: 9.40; for `CC(C)n1cc(CN2CCC3(CC2)CC(c2ccc(C(=O)O)cc2)=NO3)c2c(F)c(F)c(F)c(F)c21` [Example 46, 4-(8-{[1-(propan-2-yl)-4,5,6,7-(tetrafluoro)-1H-indol-3-yl]methyl}-1-oxa-2,8-diazaspiro[4.5]dec-2-en-3-yl)benzoic acid, TFA salt]: 7.92. Same read-out and setting: the result for `CC(C)n1cc(CN2CCC3(CC2)CC(c2ccc(C(=O)O)cc2)=NO3)c2cc(F)ccc21` [Example 51, 4-(8-{[5-Fluoro-1-(propan-2-yl)-1H-indol-3-yl]methyl}-1-oxa-2,8-diazaspiro[4.5]dec-2-en-3-yl)benzoic acid, TFA salt] reads 8.08; that for `Cc1cc(CN2CCC3(CC2)CC(c2ccc(C(=O)O)cc2)=NO3)cc2c1OC(C)(C)CC2` [Example 91, 4-{8-[(2,2,8-Trimethyl-3,4-dihydro-2H-chromen-6-yl)methyl]-1-oxa-2,8-diazaspiro[4.5]dec-2-en-3-yl}benzoic acid, TFA salt], 7.14.

Turning to `O=C(O)c1ccc(C2=NOC3(CCN(Cc4cn(C5CC5)c5c(C6CC6)cccc45)CC3)C2)cc1` [Example 50, 4-(8-{[1,7-(Dicyclopropyl)-1H-indol-3-yl]methyl}-1-oxa-2,8-diazaspiro[4.5]dec-2-en-3-yl)benzoic acid, TFA salt], the pIC50 at SSTR5 [1] is 7.87.

Consider `CC(C)n1cc(CN2CCC3(CC2)CC(c2ccc(C(=O)O)cc2)=NO3)c2c(-c3ccc(F)cc3)cccc21` [Example 39, 4-(8-{[4-(4-Fluorophenyl)-1-(propan-2-yl)-1H-indol-3-yl]methyl}-1-oxa-2,8-diazaspiro[4.5]dec-2-en-3-yl)benzoic acid, TFA salt], for which the pIC50 at SSTR5 [1] was 9.74. On to `CC(C)n1cc(CN2CCC3(CC2)CC(c2ccc(C(=O)O)cc2)=NO3)c2c(C3CC3)cccc21` [Example 47, 4-(8-{[4-(Cyclopropyl)-1-(propan-2-yl)-1H-indol-3-yl]methyl}-1-oxa-2,8-diazaspiro[4.5]dec-2-en-3-yl)benzoic acid, TFA salt], for which the pIC50 at SSTR5 [1] is 9.55. Same read-out and setting: the result for `CC1(C)CCS(=O)(=O)c2c(Cl)cc(CN3CCC4(CC3)CC(c3ccc(C(=O)O)cc3)=NO4)cc21` [Example 99, 4-{8-[(8-Chloro-4,4-dimethyl-1,1-dioxido-3,4-dihydro-2H-thiochromen-6-yl)methyl]-1-oxa-2,8-diazaspiro[4.5]dec-2-en-3-yl}benzoic acid, TFA salt] reads 6.33; that for `CC(C)n1cc(CN2CCC3(CC2)CC(c2ccc(C(=O)O)cc2)=NO3)c2c(-c3ccc(F)cc3)ccnc21` [Example 43, 4-(8-{[4-(4-Fluorophenyl)-1-(propan-2-yl)-1H-pyrrolo[2,3-b]pyridin-3-yl]methyl}-1-oxa-2,8-diazaspiro[4.5]dec-2-en-3-yl)benzoic acid, TFA salt], 8.60.

`O=C(O)c1ccc(C2=NOC3(CCN(Cc4cc(Cl)cc(C5CC5)c4)CC3)C2)cc1` [Example 85, 4-[8-(3-Chloro-5-cyclopropylbenzyl)-1-oxa-2,8-diazaspiro[4.5]dec-2-en-3-yl]benzoic acid, TFA salt]: the pIC50 at SSTR5 [1] was 8.65. Same read-out and setting: the result for `CC(C)n1cc(CN2CCC3(CC2)CC(c2ccc(C(=O)O)cc2)=NO3)c2c(-c3cc(F)c(F)cc3F)cccc21` [Example 41, 4-(8-{[4-(2,4,5-Trifluorophenyl)-1-(propan-2-yl)-1H-indol-3-yl]methyl}-1-oxa-2,8-diazaspiro[4.5]dec-2-en-3-yl)benzoic acid, TFA salt] reads 9.52.
